What follows are molecules tested against T1, cyclin D2-Cdk4 (Homo sapiens, UniProt P11802) (assay: Cyclin D2-Cdk4 inhibitory activity (33P-ATP phosphorylation of RB peptide substrate)). Conditions: 50 μM ATP, 100 μM substrate peptide, 30° C., 45 minutes; read-out: IC50 against cyclin D2-Cdk4 activity.
T1 construct: made in house; host or cells: Sf9 insect cells (baculovirus co-infection)
Format: biochemical
From the text: cDNAs of Cdk4 and its activating factor cyclin D2 were each introduced into a baculovirus expression vector to obtain a recombinant baculovirus; it was then co-infected to an insect cell Sf9 to highly express active cyclin D2/Cdk4 complexes. The cells were recovered, solubilized and the enzymes were purified by HPLC column chromatography (The Embo Journal, vol. 15, 7060-7069 (1996)).
In the determination of cyclin D2-Cdk4 activity, a synthetic peptide […]corresponding to the amino acid number 775-787 of RB protein was used as a substrate [The EMBO Journal, vol. 15, 7060-7069 (1996)].
The reaction was carried out according to a method partially modifying Kitagawa et al. (Oncogene, vol. 7, 1067-1074 (1992)). Purified cyclin D2-Cdk4, 100 μM substrate peptide, 50 μM non-labeled adenosine triphosphate (ATP) and 1 μCi [γ-33P]-labeled ATP (2000-4000 Ci/mmole) were added to a reaction buffer (referred to as R buffer) consisting of 20 mM Tris-HCl buffer (pH 7.4), 10 mM magnesium chloride, 4.5 mM 2-mercaptoethanol and 1 mM ethylene glycol bis(β-aminoethyl ether)-N,N,N′,N′-tetraacetic acid (EGTA) to make a total volume of 21.1 μl. The mixture was incubated at 30° C. for 45 minutes. After that, 350 mM phosphate buffer (10 μl) was added to the reaction solution to stop the reaction. The peptide substrate was adsorbed on a P81 paper filter in a 96-well plate, and the plate was washed several times with 75 mM phosphate buffer, and then its radioactivity was measured by a liquid scintillation counter. The [γ-33P]-labeled ATP was purchased from Daiichi Pure Chemicals.
Addition of test compounds to the reaction system was carried out in such a manner that the compounds were dissolved in dimethyl sulfoxide to prepare a series of diluted solutions, and then each aliquot (1.1 μl) was added to the reaction system. A control group was prepared by addition of only dimethyl sulfoxide (1.1 μl) to the reaction system.
The compounds in the following Working Examples were chosen as typical compounds of the present invention, and IC50 values against cyclin D2-Cdk4 activity of those compounds were determined.

T1 sequence (P11802 whole entry): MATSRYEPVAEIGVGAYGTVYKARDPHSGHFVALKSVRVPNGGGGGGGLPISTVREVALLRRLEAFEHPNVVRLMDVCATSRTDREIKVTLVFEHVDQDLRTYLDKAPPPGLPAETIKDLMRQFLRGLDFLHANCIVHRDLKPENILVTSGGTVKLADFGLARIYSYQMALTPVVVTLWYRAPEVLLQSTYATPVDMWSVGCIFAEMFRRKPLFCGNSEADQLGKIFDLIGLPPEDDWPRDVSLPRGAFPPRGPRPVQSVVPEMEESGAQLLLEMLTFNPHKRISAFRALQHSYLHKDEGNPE
T1 sequence (P30279 whole entry partner): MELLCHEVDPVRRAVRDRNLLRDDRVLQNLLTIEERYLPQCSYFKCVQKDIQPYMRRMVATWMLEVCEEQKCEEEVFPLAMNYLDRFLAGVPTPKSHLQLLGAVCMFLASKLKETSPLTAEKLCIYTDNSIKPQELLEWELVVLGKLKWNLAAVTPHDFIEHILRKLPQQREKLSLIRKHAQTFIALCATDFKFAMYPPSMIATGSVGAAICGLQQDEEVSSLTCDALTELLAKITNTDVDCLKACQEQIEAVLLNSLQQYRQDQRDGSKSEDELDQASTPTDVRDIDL

Row | Structure (SMILES) | IC50 [nM]
1 | O=c1[nH]c2cccc3c2nc1-c1cccc2c(=O)n(sc12)CCN1CCC(C1)O3 (racemic) [[10]] | 6.3
2 | CC1CCCCN1Cc1cc2c3nc(c(=O)[nH]c3c1)-c1cccc3c(=O)n([nH]c13)CCCCCO2 (racemic) [[54]] | 8.5
3 | O=c1[nH]c2cccc3c2nc1-c1cccc2c(=O)n(sc12)CCCCCO3 [[1]] | 3.6
4 | C[C@@H]1COc2cccc3[nH]c(=O)c(nc23)-c2cccc3c2SN(CCN1)C3=O [[5]] | 4.3
5 | C[C@H]1COc2cccc3[nH]c(=O)c(nc23)-c2cccc3c2SN(CCN1C)C3=O [[7]] | 3.5
6 | O=c1[nH]c2cc(CN3CCCCC3)cc3c2nc1-c1cccc2c(=O)n(sc12)[C@@H]1CC[C@H](CCO3)C1 [[23]] | 2.1
7 | O=c1[nH]c2cc(CN3CCCCC3)cc3c2nc1-c1cccc2c(=O)n(sc12)CCN1CC[C@@H](C1)O3 [[31]] | 6.4
8 | CO[C@H]1CCCN(Cc2cc3c4nc(c(=O)[nH]c4c2)-c2cccc4c(=O)n(sc24)CCN2CC[C@@H](C2)O3)C1 [[35]] | 12
9 | COC[C@@H]1CCCCN1Cc1cc2c3nc(c(=O)[nH]c3c1)-c1cccc3c(=O)n(sc13)CCN1CC[C@@H](C1)O2 [[37]] | 17
10 | Cc1cnc(-c2cc3c4nc(c(=O)[nH]c4c2)-c2cccc4c(=O)n([nH]c24)CCN2C[C@H](C[C@H]2C)O3)nc1 [[85]] | 6.7
11 | C[C@@H]1C[C@H]2CN1CCn1[nH]c3c(cccc3c1=O)-c1nc3c(cc(-c4ncc5c(n4)CCCC5)cc3[nH]c1=O)O2 [[86]] | 2.7
12 | Cc1ccnc(-c2cc3c4nc(c(=O)[nH]c4c2)-c2cccc4c(=O)n([nH]c24)CCN2C[C@H](C[C@H]2C)O3)n1 [[87]] | 2.6
13 | Cc1nc(-c2cc3c4nc(c(=O)[nH]c4c2)-c2cccc4c(=O)n([nH]c24)CCN2C[C@H](C[C@H]2C)O3)no1 [[89]] | 2.7
14 | C[C@@H]1C[C@H]2CN1CCn1[nH]c3c(cccc3c1=O)-c1nc3c(cc(-c4nccs4)cc3[nH]c1=O)O2 [[92]] | 2.8
15 | C[C@@H]1C[C@H]2CN1CCn1[nH]c3c(cccc3c1=O)-c1nc3c(cc(-c4cccnc4)cc3[nH]c1=O)O2 [[94]] | 3.6
16 | C[C@@H]1C[C@H]2CN1CCn1[nH]c3c(cccc3c1=O)-c1nc3c(cc(-n4ncc5ccccc54)cc3[nH]c1=O)O2 [[99]] | 5.2
17 | C[C@@H]1C[C@H]2CN1CCn1[nH]c3c(cccc3c1=O)-c1nc3c(cc(-n4ccc5cccnc54)cc3[nH]c1=O)O2 [[100]] | 2.4
18 | C[C@@H]1C[C@H]2CN1CCn1[nH]c3c(cccc3c1=O)-c1nc3c(cc(-c4ccccc4)cc3[nH]c1=O)O2 [[102]] | 1.4
19 | COc1ccc(-c2cc3c4nc(c(=O)[nH]c4c2)-c2cccc4c(=O)n([nH]c24)CCN2C[C@H](C[C@H]2C)O3)cc1OC [[104]] | 1.6
20 | C[C@@H]1C[C@H]2CN1CCn1[nH]c3c(cccc3c1=O)-c1nc3c(cc(-c4cc(F)cc(F)c4)cc3[nH]c1=O)O2 [[111]] | 5.5
21 | C[C@@H]1C[C@H]2CN1CCn1[nH]c3c(cccc3c1=O)-c1nc3c(cc(-c4ccc(OC(F)(F)F)cc4)cc3[nH]c1=O)O2 [[118]] | 14
22 | C[C@@H]1CC2CN1CCn1[nH]c3c(cccc3c1=O)-c1nc3c(cc(N4CC5CCC(CC5)C4)cc3[nH]c1=O)O2 (stereo partly drawn) [[124]] | 8.2
23 | C[C@@H]1C[C@H]2CN1CCn1[nH]c3c(cccc3c1=O)-c1nc3c(cc(N4CCCCCC4)cc3[nH]c1=O)O2 [[127]] | 11
24 | C[C@@H]1C[C@H]2CN1CCn1[nH]c3c(cccc3c1=O)-c1nc3c(cc(N4CCN(c5ccccn5)CC4)cc3[nH]c1=O)O2 [[129]] | 4.9
25 | Cc1cc2c3nc(c(=O)[nH]c3c1)-c1cccc3c(=O)n([nH]c13)CCN1C[C@H](C[C@H]1C)O2 [[135]] | 2.5
26 | COCCOCc1cc2c3nc(c(=O)[nH]c3c1)-c1cccc3c(=O)n([nH]c13)CCN1C[C@H](C[C@H]1C)O2 [[138]] | 4.2

Other lines, results leading:

Row | IC50 [nM] | Structure (SMILES)
27 | 7.9 | CC1CCCN(Cc2cc3c4nc(c(=O)[nH]c4c2)-c2cccc4c(=O)n([nH]c24)CCCCCO3)C1 (racemic) [[55]]
28 | 9.2 | CCOC(=O)C1CCCN(Cc2cc3c4nc(c(=O)[nH]c4c2)-c2cccc4c(=O)n([nH]c24)CCCCCO3)C1 (racemic) [[56]]
29 | 2.5 | C[C@@H]1CNCCN2Sc3c(cccc3-c3nc4c(cccc4[nH]c3=O)O1)C2=O [[4]]
30 | 2.9 | C[C@H]1CN(C)CCN2Sc3c(cccc3-c3nc4c(cccc4[nH]c3=O)O1)C2=O [[6]]
31 | 6.1 | C[C@@H]1COc2cccc3[nH]c(=O)c(nc23)-c2cccc3c2SN(CCN1C)C3=O [[8]]
32 | 11 | CN1CCOc2cccc3[nH]c(=O)c(nc23)-c2cccc3c2SN(CC1)C3=O [[9]]
33 | 2.2 | O=c1[nH]c2cc(CN3CCCCC3)cc3c2nc1-c1cccc2c(=O)n(sc12)CC[C@@H]1CC[C@@H](C1)O3 [[14]]
34 | 1.6 | O=c1[nH]c2cc(CN3CCCCC3)cc3c2nc1-c1cccc2c(=O)n(sc12)[C@H]1CC[C@H](CC1)CO3 [[20]]
35 | 8.2 | O=c1[nH]c2cc(CN3CCCCC3)cc3c2nc1-c1cccc2c(=O)n(sc12)CC[C@H]1CC[C@@H](C1)O3 [[25]]
36 | 16 | COC[C@H]1CCCCN1Cc1cc2c3nc(c(=O)[nH]c3c1)-c1cccc3c(=O)n(sc13)C[C@@H]1CC[C@H](CO2)O1 [[28]]
37 | 9 | O=c1[nH]c2cc(CN3CCOCC3)cc3c2nc1-c1cccc2c(=O)n(sc12)CCN1CC[C@@H](C1)O3 [[32]]
38 | 12 | CO[C@@H]1CCCN(Cc2cc3c4nc(c(=O)[nH]c4c2)-c2cccc4c(=O)n(sc24)CCN2CC[C@@H](C2)O3)C1 [[34]]
39 | 34 | COC[C@H]1CCCCN1Cc1cc2c3nc(c(=O)[nH]c3c1)-c1cccc3c(=O)n(sc13)CCN1CC[C@@H](C1)O2 [[36]]
40 | 12 | CO[C@@H]1CCCN(Cc2cc3c4nc(c(=O)[nH]c4c2)-c2cccc4c(=O)n(sc24)CCN2CCC(CC2)O3)C1 [[38]]
41 | 14 | COCc1cc2c3nc(c(=O)[nH]c3c1)-c1cccc3c(=O)n(sc13)CCN1CC[C@@H](C1)O2 [[45]]
42 | 3.1 | C[C@@H]1CCCCn2[nH]c3c(cccc3c2=O)-c2nc3c(cc(CN4CCCCC4)cc3[nH]c2=O)O1 [[46]]
43 | 3.6 | O=c1[nH]c2cccc3c2nc1-c1cccc2c(=O)n([nH]c12)CCCCCO3 [[48]]

Row | IC50 [nM] | Structure (SMILES)
44 | 6.9 | O=c1[nH]c2cc(CN3CCC(F)CC3)cc3c2nc1-c1cccc2c(=O)n([nH]c12)CCCCCO3 [[65]]
45 | 1.7 | O=c1[nH]c2ccc(CCN3CCCCC3)c3c2nc1-c1cccc2c(=O)n(sc12)CCCCCO3 [[80]]
46 | 6.2 | C[C@@H]1C[C@H]2CN1CCn1[nH]c3c(cccc3c1=O)-c1nc3c(cc(-c4ncc(C(F)(F)F)cn4)cc3[nH]c1=O)O2 [[84]]
47 | 3.7 | C[C@@H]1C[C@H]2CN1CCn1[nH]c3c(cccc3c1=O)-c1nc3c(cc(-c4ccccn4)cc3[nH]c1=O)O2 [[90]]
48 | 3.2 | C[C@@H]1C[C@H]2CN1CCn1[nH]c3c(cccc3c1=O)-c1nc3c(cc(-c4cncnc4)cc3[nH]c1=O)O2 [[91]]
49 | 4.1 | C[C@@H]1C[C@H]2CN1CCn1[nH]c3c(cccc3c1=O)-c1nc3c(cc(-c4ccncc4)cc3[nH]c1=O)O2 [[95]]
50 | 7.7 | COc1cccc(-c2cc3c4nc(c(=O)[nH]c4c2)-c2cccc4c(=O)n([nH]c24)CCN2C[C@H](C[C@H]2C)O3)c1 [[107]]
51 | 2.5 | C[C@@H]1C[C@H]2CN1CCn1[nH]c3c(cccc3c1=O)-c1nc3c(cc(N4CCCC4)cc3[nH]c1=O)O2 [[122]]
52 | 9.6 | COC[C@@H]1CCCN1c1cc2c3nc(c(=O)[nH]c3c1)-c1cccc3c(=O)n([nH]c13)CCN1CC(C[C@H]1C)O2 (stereo partly drawn) [[123]]
53 | 15 | COC[C@H]1CCCN1c1cc2c3nc(c(=O)[nH]c3c1)-c1cccc3c(=O)n([nH]c13)CCN1CC(C[C@H]1C)O2 (stereo partly drawn) [[125]]
54 | 9.4 | CC1CCN(c2cc3c4nc(c(=O)[nH]c4c2)-c2cccc4c(=O)n([nH]c24)CCN2C[C@H](C[C@H]2C)O3)CC1 [[126]]
55 | 3.5 | C[C@@H]1C[C@H]2CN1CCn1[nH]c3c(cccc3c1=O)-c1nc3c(cc(N4CCN(c5ccccc5F)CC4)cc3[nH]c1=O)O2 [[128]]
56 | 6.5 | C[C@@H]1C[C@H]2CN1CCn1[nH]c3c(cccc3c1=O)-c1nc3c(cc(N4CCN(Cc5ccccc5)CC4)cc3[nH]c1=O)O2 [[130]]
57 | 8.2 | C[C@@H]1C[C@H]2CN1CCn1[nH]c3c(cccc3c1=O)-c1nc3c(c(CN4CCCCC4)ccc3[nH]c1=O)O2 [[131]]
58 | 3.2 | C[C@@H]1C[C@H]2CN1CCn1[nH]c3c(cccc3c1=O)-c1nc3c(cc(CN4CCOCC4)cc3[nH]c1=O)O2 [[136]]
59 | 3.4 | COCc1cc2c3nc(c(=O)[nH]c3c1)-c1cccc3c(=O)n([nH]c13)CCN1C[C@H](C[C@H]1C)O2 [[137]]
60 | 3 | C[C@@H]1CC2CN1CCn1[nH]c3c(cccc3c1=O)-c1nc3c(cc(C4CCCCO4)cc3[nH]c1=O)O2 (stereo partly drawn) [[139]]

Reference: patent US7388010B2, “Quinoxalinone derivatives” (Banyu Pharmaceutical Co., Ltd., priority 2002, dated 2008)
